Reference: paper PMC9388626, “STUB1 is an intracellular checkpoint for interferon gamma sensing” (Scientific Reports, 2022)

What was measured:
B16-F10 cells [1] = test: Flow cytometry, surface MHC-I on CRISPR-edited cells with IFNγ; format: cell-based, murine
Method: Parental, CRISPR-edited or biologic-overexpressed tumour cells were seeded in a cell density of 60,000 (B16-F10), 150,000 (CT26), 100,000 (A375), or 200,000 (A549) per well in 12-well plate filled with 0.8 ml culture media + 10% FBS. After overnight incubation, the culture media were replaced with 1 ml fresh media supplemented with 10% FBS and the designated concentration of the recombinant mouse IFNγ (R&D Systems, #485-MI-100) or recombinant human IFNγ (R&D Systems, #285-IF-100). […]
Cells were dissociated from the wells with 0.25% trypsin (Gibco, 25200056). After rinsing with 0.5 ml PBS, each sample was stained with the LIVE/DEAD Fixable Aqua dead cell staining solution (Life Technologies, L34957) in 100 µl PBS (1:1000 dilution) for 15 min at 4 °C. After rinsing with 2 × 0.5 ml PBS, each sample was stained with the corresponding primary antibody-dye conjugates diluted in 100 µl Pharmingen stain buffer (BD Biosciences, #554657). After 1 h staining at 4 °C, the cells were rinsed with 2 × 2 ml Pharmingen stain buffer and fixed with 4.21% (w/w) formaldehyde (BD Biosciences, #554655). Cells were analyzed on LSRFortessa X-20 (BD Biosciences) with appropiate fluorescence compensation. The data were analyzed using FlowJo. Cells were gated based on FSC and SSC. Single cells were selected using FSC-A and FSC-H and viable cells were selected using LIVE/DEAD signal. Primary antibodies used were: H-2K^b/H-2D^b (FITC, Biolegend, #114606, 1:50 dilution), HLA-A,B,C (FITC, Biolegend, #311404, 1:100 dilution), mouse IFNGR1 (PE, Invitrogen, #12-1191-82, 1:50 dilution), human IFNGR1 (PE, Miltenyi, #130-125-851, 1:50 dilution), mouse IL1R1 (APC, Biolegend, #113509, 1:20 dilution), mouse IL6R (APC, Biolegend, #115812, 1:20 dilution), mouse IFNAR1 (APC, Biolegend, #127314, 1:20 dilution), and mouse GP130 (PE, Biolegend, #149404, 1:100 dilution).

B16-F10 cells [2] = test: Western blot, protein expression after 24 h IFNγ; format: cell-based, murine; conditions: Stub1-null B16-F10, 24 h IFNγ
Method: Parental, CRISPR-edited or biologic-overexpressed tumour cells were seeded in a cell density of 60,000 (B16-F10), 150,000 (CT26), 100,000 (A375), or 200,000 (A549) per well in 12-well plate filled with 0.8 ml culture media + 10% FBS. After overnight incubation, the culture media were replaced with 1 ml fresh media supplemented with 10% FBS and the designated concentration of the recombinant mouse IFNγ (R&D Systems, #485-MI-100) or recombinant human IFNγ (R&D Systems, #285-IF-100). The cells were stimulated with the cytokine for 24 h before they were harvested by trypsinization for flow cytometry, western blot, or qPCR analysis (6 h treatment).
Cells were dissociated from the wells with 0.25% trypsin (Gibco, 25200056). After rinsing with 0.5 ml PBS, the cell pellets were lysed with chilled cell lysis buffer (Cell Signaling Technology, #9803) supplemented with Halt protease inhibitor cocktail (Thermo Scientific, #78430) and phosphatase inhibitor (Sigma-Aldrich, # 4906837001) for 30 min with intermittent vortexing. The lysate was transferred into PCR-strip tubes and sonicated in a chilled water bath sonicator (QSonica). Lysates were clarified by centrifugation at 15,000 rpm at 4 °C for 15 min. Protein concentration was determined using BCA protein assay kit (Pierce, #23225). The lysates were mixed with LDS sample buffer (Life Technologies, NP0008) and sample reducing agent (Life Technologies, NP0009), followed by heating at 70 °C for 10 min to fully denature the protein. […] Membrane blots were pre-stained with total protein stain (LI-COR, # 926-11016) and imaged with Odyssey CLx. […] The blots were finally probed, for overnight at 4 °C, with the appropriate primary antibodies diluted in Intercept (TBS) blocking buffer supplemented with 0.1% (v/v) Tween-20, followed by the secondary antibodies (IRDye 800CW donkey anti-rabbit or anti-mouse IgG, LI-COR) for 1 h at room temperature. Fluorescent signals were imaged and quantified using Odyssey CLx and Image Studio v5.0. Primary antibodies used were: STUB1/CHIP (Cell Signaling Technology, #2080, 1:2000 dilution), STAT1 (Cell Signaling Technology, #14995, 1:10,000 dilution), phospho-Tyr701-STAT1 (Cell Signaling Technology, #9167, 1:2000 dilution), STAT2 (Cell Signaling Technology, #72604, 1:2000 dilution), IRF1 (Cell Signaling Technology, #8478, 1:2000 dilution), PSMB8 (Cell Signaling Technology, #13635, 1:2000 dilution), PSMB9 (Abcam, ab184172, 1:10,000 dilution), and PSMB10 (Abcam, ab183506, 1:10,000 dilution).

IFNγ
IFNγ concentration needed by parental and control cells for response comparable to Stub1-null cells (B16-F10 cells [1]; B16-F10 (Fig. 1b, e)): at least tenfold higher concentration of IFNγ | MHC-I relative abundance compared to parental (B16-F10 cells [1]; Parental, 0.10 ng ml-1, 24 h): 1.00 | MHC-I relative abundance compared to parental (B16-F10 cells [1]; Parental, 0.10 ng ml-1, 48 h): 1.00 | Surface MHC-I (B16-F10 cells [1]; Stub1-null vs parental and control B16-F10): significantly higher, IFNγ-dependent, MHC-I on cell surface | MHC-I relative abundance compared to parental (B16-F10 cells [1]; clone 1A12 (gStub1 #2), 0.10 ng ml-1, 24 h): 3.60 | MHC-I relative abundance compared to parental (B16-F10 cells [1]; clone 1A12 (gStub1 #2), 0.10 ng ml-1, 48 h): 11.41 | MHC-I relative abundance compared to parental (B16-F10 cells [1]; clone 1B9, 0.10 ng ml-1, 24 h): 1.36 | MHC-I relative abundance compared to parental (B16-F10 cells [1]; clone 1B9, 0.10 ng ml-1, 48 h): 1.43 | MHC-I relative abundance compared to parental (B16-F10 cells [1]; clone 1D8, 0.10 ng ml-1, 24 h): 4.16 | MHC-I relative abundance compared to parental (B16-F10 cells [1]; clone 1D8, 0.10 ng ml-1, 48 h): 12.70 | MHC-I relative abundance compared to parental (B16-F10 cells [1]; clone 1D10 (gStub1 #1), 0.10 ng ml-1, 24 h): 4.42 | MHC-I relative abundance compared to parental (B16-F10 cells [1]; clone 1D10 (gStub1 #1), 0.10 ng ml-1, 48 h): 13.18 | MHC-I relative abundance compared to parental (B16-F10 cells [1]; clone 1E6, 0.10 ng ml-1, 24 h): 9.22 | MHC-I relative abundance compared to parental (B16-F10 cells [1]; clone 1E6, 0.10 ng ml-1, 48 h): 24.23 | MHC-I relative abundance compared to parental (B16-F10 cells [1]; clone 1G6, 0.10 ng ml-1, 24 h): 4.19 | MHC-I relative abundance compared to parental (B16-F10 cells [1]; clone 1G6, 0.10 ng ml-1, 48 h): 12.85 | MHC-I relative abundance compared to parental (B16-F10 cells [1]; clone 1G10, 0.10 ng ml-1, 24 h): 1.08 | MHC-I relative abundance compared to parental (B16-F10 cells [1]; clone 1G10, 0.10 ng ml-1, 48 h): 0.94 | MHC-I relative abundance compared to parental (B16-F10 cells [1]; clone 1H7, 0.10 ng ml-1, 24 h): 2.27 | MHC-I relative abundance compared to parental (B16-F10 cells [1]; clone 1H7, 0.10 ng ml-1, 48 h): 5.53 | MHC-I relative abundance compared to parental (B16-F10 cells [1]; clone 2B11, 0.10 ng ml-1, 24 h): 2.67 | MHC-I relative abundance compared to parental (B16-F10 cells [1]; clone 2B11, 0.10 ng ml-1, 48 h): 9.24 | MHC-I relative abundance compared to parental (B16-F10 cells [1]; clone 2E8 (gControl), 0.10 ng ml-1, 24 h): 0.75 | MHC-I relative abundance compared to parental (B16-F10 cells [1]; clone 2E8 (gControl), 0.10 ng ml-1, 48 h): 0.77 | MHC-I relative abundance compared to parental (B16-F10 cells [1]; clone 2E9, 0.10 ng ml-1, 24 h): 4.10 | MHC-I relative abundance compared to parental (B16-F10 cells [1]; clone 2E9, 0.10 ng ml-1, 48 h): 11.55 | MHC-I relative abundance compared to parental (B16-F10 cells [1]; clone 2F7, 0.10 ng ml-1, 24 h): 1.00 | MHC-I relative abundance compared to parental (B16-F10 cells [1]; clone 2F7, 0.10 ng ml-1, 48 h): 1.01 | MHC-I relative abundance compared to parental (B16-F10 cells [1]; clone 2H3, 0.10 ng ml-1, 24 h): 3.56 | MHC-I relative abundance compared to parental (B16-F10 cells [1]; clone 2H3, 0.10 ng ml-1, 48 h): 12.42 | Protein expression of STAT1, STAT2, IRF1 (B16-F10 cells [2]): upregulation of STAT1, STAT2, and IRF1 after 24 h stimulation with IFNγ
